O=C(O)CCCC(=O)O
Details	solubility (mole fraction)
in cyclohexanone, 294.15 K	0.153
in cyclohexanone, 298.45 K	0.167
in cyclohexanone, 302.45 K	0.181
in cyclohexanone, 307.15 K	0.2
in cyclohexanone, 312.45 K	0.238
in cyclohexanone, 317.05 K	0.27
in cyclohexanone, 321.75 K	0.309
in cyclohexanone, 326.35 K	0.351
in cyclohexanone, 331.55 K	0.401
in cyclohexanone, 335.25 K	0.437
in propionic acid, 289.55 K	0.238
in propionic acid, 294.15 K	0.272
in propionic acid, 302.15 K	0.337
in propionic acid, 305.65 K	0.365
in propionic acid, 309.15 K	0.395
in propionic acid, 312.85 K	0.42
in propionic acid, 316.15 K	0.447
in propionic acid, 319.65 K	0.474
in propionic acid, 323.65 K	0.509
in propionic acid, 332.15 K	0.587
in ε-caprolactone, 286.25 K	0.124
in ε-caprolactone, 291.55 K	0.153
in ε-caprolactone, 296.15 K	0.183
in ε-caprolactone, 300.25 K	0.214
in ε-caprolactone, 304.45 K	0.245
in ε-caprolactone, 308.55 K	0.274
in ε-caprolactone, 312.45 K	0.304
in ε-caprolactone, 316.05 K	0.334
in ε-caprolactone, 320.25 K	0.364
in ε-caprolactone, 325.25 K	0.402

Source: BigSolDB 2.1
